Here are results for 18 compounds from US20220389009A1, “SUBSTITUTED 1,6-NAPHTHYRIDINE INHIBITORS OF CDK5” (Goldfinch Bio, Inc., priority 2019, published 2022).

One experiment deals with CDK2/CycA2 (Homo sapiens, UniProt P24941). In words: CDK2 mobility shift assay (enzymatic activity of CDK2/CycA2). Conditions: 1.25 nM CDK2/CycA2, 37 μM ATP, FL Peptide 18, 120 min at room temperature; read-out: CDK2 IC50. It is filed as biochemical. An outline of the steps: (§1)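 Carna CDK5/p25 (0.154 nM) or CDK2/CycA2 (1.25 nM) was preincubated 30 min with compound, ATP ([…] for CDK5; 37 μM for CDK2) and 10 mM MgCl2 in HEPES pH 7.5. The reaction was started with 1.5 μM FL peptide (29 for CDK5, 18 for CDK2) and run 60 min (CDK5) or 120 min (CDK2) at room temperature. Product was read by mobility shift, with IC50 from a 4-parameter fit.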

The next experiment has as its target CDK5/p25 (Homo sapiens, UniProt Q00535). In words: CDK5 mobility shift assay (enzymatic activity of CDK5/p25). It is filed as biochemical. Conditions: for IC50: 0.154 nM CDK5/p25, FL peptide 29, 60 min at room temperature, read-out: CDK5 IC50; for CDK5/CDK2 specificity: fold more active against CDK5 than CDK2. In short, it runs like this: as §1

Bounds are passed on as bounds.

CDK5/p25, sequence (Q00535 whole entry): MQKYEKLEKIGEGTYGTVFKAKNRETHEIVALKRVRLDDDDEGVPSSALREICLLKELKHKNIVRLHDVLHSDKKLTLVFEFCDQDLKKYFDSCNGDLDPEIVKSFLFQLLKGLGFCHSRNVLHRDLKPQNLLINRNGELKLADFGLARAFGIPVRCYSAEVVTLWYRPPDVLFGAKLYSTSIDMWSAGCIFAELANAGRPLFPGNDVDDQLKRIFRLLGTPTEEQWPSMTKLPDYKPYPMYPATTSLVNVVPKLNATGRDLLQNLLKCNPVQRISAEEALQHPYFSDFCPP
CDK5/p25, sequence (Q15078 99-307 partner limits assumed): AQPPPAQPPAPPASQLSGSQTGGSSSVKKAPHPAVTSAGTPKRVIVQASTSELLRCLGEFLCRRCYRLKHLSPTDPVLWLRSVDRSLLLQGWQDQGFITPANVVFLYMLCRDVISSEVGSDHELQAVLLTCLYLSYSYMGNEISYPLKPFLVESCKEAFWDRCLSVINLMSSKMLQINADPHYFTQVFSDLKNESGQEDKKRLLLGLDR

A word on the IC50: it is the concentration at which inhibition is half-maximal. For `CN1CCC(C(C)(O)c2ccc3cnc(Nc4ccc(-n5cccn5)cc4F)cc3n2)CC1` (single isomer, unassigned) [Compound 205, 1-(7-[[2-fluoro-4-(pyrazol-1-yl)phenyl]amino]-1,6-naphthyridin-2-yl)-1-(1-methylpiperidin-4-yl)ethanol], the IC50 at CDK2/CycA2 is more than 1000 nM; on CDK5/p25, 100 to 1000 nM. At CDK5/p25, the CDK5/CDK2 specificity entry is “++ (greater than 10-fold and less than or equal to 100-fold more active against CDK5 than CDK2)”.

As for `O=S(=O)(c1ccc2cnc(Nc3ccc(-c4cccnc4)cc3F)cc2n1)C1CCN(CC2COC2)CC1` [Compound 323], the IC50 on CDK2/CycA2 was 100 to 1000 nM. On CDK5/p25, the IC50 is less than 10 nM and the CDK5/CDK2 specificity entry was “+++ (greater than 100-fold more active against CDK5 than CDK2)”.

Regarding `CN(C)[C@H]1CC[C@@H](N(CC(=O)O)c2ccc3cnc(Nc4ccc(-n5ccc(CO)n5)cc4F)cc3n2)CC1` [Compound 182, [[7-([2-fluoro-4-[3-(hydroxymethyl)pyrazol-1-yl]phenyl]amino)-1,6-naphthyridin-2-yl][(1s,4s)-4-(dimethylamino)cyclohexyl]amino]acetic acid], the IC50 at CDK2/CycA2 was more than 1000 nM. At CDK5/p25, the IC50 is more than 1000 nM; the CDK5/CDK2 specificity entry is “++ (greater than 10-fold and less than or equal to 100-fold more active against CDK5 than CDK2)”.

As to `CN1CCC(S(=O)(=O)c2ccc3cnc(Nc4ccc(-n5ccc(C(N)=O)n5)cc4F)cc3n2)CC1` [Compound 317, 1-(3-fluoro-4-[[2-(1-methylpiperidin-4-ylsulfonyl)-1,6-naphthyridin-7-yl]amino]phenyl)pyrazole-3-carboxamide], the IC50 was 100 to 1000 nM at CDK2/CycA2 and less than 10 nM at CDK5/p25. Also, the CDK5/CDK2 specificity result on CDK5/p25 is “+++ (greater than 100-fold more active against CDK5 than CDK2)”.

Turning to `CN1CCC([C@@](C)(O)c2ccc3cnc(Nc4ccc(-c5cc[nH]n5)cc4F)cc3n2)CC1` [Compound 414, (1R)-1-(7-[[2-fluoro-4-(1H-pyrazol-3-yl)phenyl]amino]-1,6-naphthyridin-2-yl)-1-(1-methylpiperidin-4-yl)ethanol], the half-inhibitory concentration (IC50) on CDK2/CycA2 lay in the range of 10 to 100 nM. Also, at CDK5/p25, the half-maximal inhibitory concentration (IC50) was less than 10 nM; the CDK5/CDK2 specificity result is “++ (greater than 10-fold and less than or equal to 100-fold more active against CDK5 than CDK2)”.

`CN1CCC(S(=O)(=O)c2ccc3cnc(Nc4ccc(-c5ccc(F)cc5)cc4F)cc3n2)CC1` [Compound 183, N-{3,4′-difluoro-[1,1′-biphenyl]-4-yl}-2-(1-methylpiperidin-4-ylsulfonyl)-1,6-naphthyridin-7-amine]: the IC50 at CDK2/CycA2 was more than 1000 nM. At CDK5/p25, the IC50 is less than 10 nM and the CDK5/CDK2 specificity result is “+++ (greater than 100-fold more active against CDK5 than CDK2)”.

With `CN1CCC(NS(=O)(=O)c2ccc3cnc(Nc4ccc(-n5ccc(CO)n5)cc4F)cc3n2)C1` (stereo not drawn) [Compound 248], the IC50 on CDK2/CycA2 was in the range of 100 to 1000 nM. Also, on CDK5/p25, the IC50 lay in the range of 10 to 100 nM and the CDK5/CDK2 specificity result was “+ (10-fold or less more active against CDK5 than CDK2)”.

As for `CN1CCC(C(C)(O)c2ccc3cnc(Nc4ccc(-c5noc(=O)[nH]5)cc4F)cc3n2)CC1` (stereo not drawn) [Compound 355], the IC50 at CDK2/CycA2 lay within 10 to 100 nM. Besides, at CDK5/p25, the 50% inhibitory concentration (IC50) was less than 10 nM; the CDK5/CDK2 specificity result is “++ (greater than 10-fold and less than or equal to 100-fold more active against CDK5 than CDK2)”.

Turning to `O=S(=O)(c1ccc2cnc(Nc3ccc(-n4ccc(CO)n4)cc3F)cc2n1)C1CCN(CC(O)CO)CC1` (stereo not drawn) [Compound 253], at CDK2/CycA2, the IC50 lay in the range of 100 to 1000 nM. On CDK5/p25, the IC50 lay in the range of 10 to 100 nM; the CDK5/CDK2 specificity entry is “++ (greater than 10-fold and less than or equal to 100-fold more active against CDK5 than CDK2)”.

As to `COc1cc(Nc2cc3nc(S(=O)(=O)C4CCN(C)CC4)ccc3cn2)ccc1NS(C)(=O)=O` [Compound 259], the IC50 at CDK2/CycA2 lay within 10 to 100 nM. Also, at CDK5/p25, the IC50 is less than 10 nM; the CDK5/CDK2 specificity entry is “++ (greater than 10-fold and less than or equal to 100-fold more active against CDK5 than CDK2)”.

In the case of `CN1CCC(C)(Nc2ccc3cnc(Nc4ccc(-n5ccc(CO)n5)cc4F)cc3n2)CC1` [Compound 140, [1-[4-([2-[(1,4-dimethylpiperidin-4-yl)amino]-1,6-naphthyridin-7-yl]amino)-3-fluorophenyl]pyrazol-3-yl]methanol], the IC50 at CDK2/CycA2 was more than 1000 nM; at CDK5/p25, 100 to 1000 nM. Also, the CDK5/CDK2 specificity result on CDK5/p25 is given as “+ (10-fold or less more active against CDK5 than CDK2)”.

As for `CN(C)C(=O)c1ccn(-c2ccc(Nc3cc4nc(S(=O)(=O)C5CCN(CC6COC6)CC5)ccc4cn3)c(F)c2)n1` [Compound 338], the IC50 on CDK2/CycA2 was 100 to 1000 nM; at CDK5/p25, less than 10 nM. Further, on CDK5/p25, the CDK5/CDK2 specificity entry is “+++ (greater than 100-fold more active against CDK5 than CDK2)”.

For the compound `CN1CCC(C(C)(O)c2ccc3cnc(Nc4ccc(CN5CCOCC5)cc4F)cc3n2)CC1` (stereo not drawn) [Compound 353], the results for the concentration for half-maximal inhibition (IC50) at CDK2/CycA2 and on CDK5/p25 were 10 to 100 nM and less than 10 nM, respectively. Besides, the CDK5/CDK2 specificity result at CDK5/p25 was “++ (greater than 10-fold and less than or equal to 100-fold more active against CDK5 than CDK2)”.

For the compound `COC(=O)CN(c1ccc2cnc(Nc3ccc(-n4ccc(CO)n4)cc3F)cc2n1)C1CCNCC1` [Compound 112, Methyl 2-[[7-([2-fluoro-4-[3-(hydroxymethyl)pyrazol-1-yl]phenyl]amino)-1,6-naphthyridin-2-yl](piperidin-4-yl)amino]acetate], the IC50 on CDK2/CycA2 is more than 1000 nM. At CDK5/p25, the IC50 was 100 to 1000 nM; the CDK5/CDK2 specificity result was “++ (greater than 10-fold and less than or equal to 100-fold more active against CDK5 than CDK2)”.

Consider `CN1CCC(C(C)(O)c2ccc3cnc(Nc4ccc(-c5cccn(C)c5=O)cc4F)cc3n2)CC1` (stereo not drawn) [Compound 352], for which the IC50 on CDK2/CycA2 was 100 to 1000 nM. At CDK5/p25, the IC50 is less than 10 nM and the CDK5/CDK2 specificity entry is “+++ (greater than 100-fold more active against CDK5 than CDK2)”.

On to `OCc1ccn(-c2ccc(Nc3cc4nc(N(Cc5cn[nH]c5)C5CCNCC5)ccc4cn3)c(F)c2)n1` [Compound 287, [1-[3-fluoro-4-([2-[piperidin-4-yl(1H-pyrazol-4-ylmethyl)amino]-1,6-naphthyridin-7-yl]amino)phenyl]pyrazol-3-yl]methanol], for which the IC50 on CDK2/CycA2 is more than 1000 nM. In addition, at CDK5/p25, the 50% inhibitory concentration (IC50) lay in the range of 10 to 100 nM; the CDK5/CDK2 specificity entry is “++ (greater than 10-fold and less than or equal to 100-fold more active against CDK5 than CDK2)”.

`OC(c1ccc2cnc(Nc3ccc(-n4cccn4)cc3F)cc2n1)C1(O)CCNCC1` (stereo not drawn) [Compound 209, 4-[(7-[[2-fluoro-4-(pyrazol-1-yl)phenyl]amino]-1,6-naphthyridin-2-yl) (hydroxy)methyl]piperidin-4-ol]: the IC50 on CDK2/CycA2 was more than 1000 nM. At CDK5/p25, the IC50 was 100 to 1000 nM; the CDK5/CDK2 specificity entry was “++ (greater than 10-fold and less than or equal to 100-fold more active against CDK5 than CDK2)”.

For `O=S(=O)(Cc1ccc2cnc(Nc3ccc(-n4ccc(CO)n4)cc3F)cc2n1)C1CCNCC1` [Compound 207, [1-[3-fluoro-4-([2-[(piperidine-4-sulfonyl)methyl]-1,6-naphthyridin-7-yl]amino)phenyl]pyrazol-3-yl]methanol], on CDK2/CycA2, the IC50 was more than 1000 nM. In addition, at CDK5/p25, the IC50 lay within 100 to 1000 nM and the CDK5/CDK2 specificity entry is on record as “+ (10-fold or less more active against CDK5 than CDK2)”.
